Measured values from US8524194B2, “Radiolabelled MMP selective compounds” (Academisch Medisch Centrum Bij de Universiteit van Amsterdam, priority 2008, dated 2013).

Columns and labels:
[1] = molecular target: T1, MMP-1 (Homo sapiens, UniProt P03956); assay: in vitro MMP inhibition, MMP-1; type: biochemical; conditions: preliminary results
T1 sequence (P03956 100-469): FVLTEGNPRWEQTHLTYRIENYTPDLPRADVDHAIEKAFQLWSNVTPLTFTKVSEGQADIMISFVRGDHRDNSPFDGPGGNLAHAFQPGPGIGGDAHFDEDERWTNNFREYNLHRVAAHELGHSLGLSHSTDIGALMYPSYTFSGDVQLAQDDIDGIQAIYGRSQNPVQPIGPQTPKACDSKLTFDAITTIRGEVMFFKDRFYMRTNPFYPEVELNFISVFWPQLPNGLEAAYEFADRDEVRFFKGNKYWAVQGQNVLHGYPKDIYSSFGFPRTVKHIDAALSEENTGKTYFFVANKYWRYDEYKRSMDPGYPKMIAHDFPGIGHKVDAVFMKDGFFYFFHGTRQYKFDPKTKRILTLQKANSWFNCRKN

[2] = molecular target: MMP-9 (Homo sapiens, UniProt P14780); assay: in vitro MMP inhibition, MMP-9; type: biochemical; conditions: preliminary results
MMP-9, sequence (P14780 94-707, species assumed): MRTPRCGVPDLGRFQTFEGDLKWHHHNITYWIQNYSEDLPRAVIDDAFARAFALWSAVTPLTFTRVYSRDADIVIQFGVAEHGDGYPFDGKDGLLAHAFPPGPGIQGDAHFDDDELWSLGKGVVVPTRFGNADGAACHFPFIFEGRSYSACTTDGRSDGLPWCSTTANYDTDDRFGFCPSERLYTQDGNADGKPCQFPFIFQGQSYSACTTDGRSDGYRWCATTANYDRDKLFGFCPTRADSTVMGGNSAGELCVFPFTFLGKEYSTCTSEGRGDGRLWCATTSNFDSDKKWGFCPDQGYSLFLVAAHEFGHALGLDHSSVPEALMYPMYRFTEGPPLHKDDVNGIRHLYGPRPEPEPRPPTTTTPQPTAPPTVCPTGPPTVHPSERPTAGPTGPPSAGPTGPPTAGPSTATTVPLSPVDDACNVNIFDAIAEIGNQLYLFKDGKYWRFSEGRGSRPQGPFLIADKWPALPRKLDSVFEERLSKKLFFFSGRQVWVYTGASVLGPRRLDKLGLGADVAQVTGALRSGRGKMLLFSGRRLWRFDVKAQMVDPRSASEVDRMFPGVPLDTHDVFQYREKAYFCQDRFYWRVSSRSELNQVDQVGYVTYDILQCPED

[3] = molecular target: T2, MMP-2 (Homo sapiens, UniProt P08253); assay: in vitro MMP inhibition, MMP-2; type: biochemical; conditions: preliminary results
T2 sequence (P08253 110-660): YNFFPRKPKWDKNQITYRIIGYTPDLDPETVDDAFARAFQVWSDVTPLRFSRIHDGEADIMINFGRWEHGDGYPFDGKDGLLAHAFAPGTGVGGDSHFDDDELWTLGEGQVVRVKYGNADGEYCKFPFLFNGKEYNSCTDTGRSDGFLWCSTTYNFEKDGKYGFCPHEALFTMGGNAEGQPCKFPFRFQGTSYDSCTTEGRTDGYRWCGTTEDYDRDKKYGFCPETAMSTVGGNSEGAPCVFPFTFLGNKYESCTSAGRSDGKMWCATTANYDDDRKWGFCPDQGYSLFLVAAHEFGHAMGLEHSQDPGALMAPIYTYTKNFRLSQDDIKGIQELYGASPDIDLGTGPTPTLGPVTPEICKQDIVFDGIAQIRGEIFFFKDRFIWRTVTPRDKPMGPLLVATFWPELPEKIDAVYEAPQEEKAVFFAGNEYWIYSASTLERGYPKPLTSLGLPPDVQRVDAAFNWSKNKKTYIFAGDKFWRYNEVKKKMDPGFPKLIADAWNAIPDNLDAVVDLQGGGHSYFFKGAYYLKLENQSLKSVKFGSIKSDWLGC

[4] = tested on: atherosclerotic plaques (MMP-2); assay: binding to atherosclerotic plaques in the aortic sinus, storage phosphor imaging; type: in vivo; conditions: ApoE−/− mice on Western Type diet, i.v., three hours after injection, FIG. 3
Experimental: Four month old ApoE−/− mice were given a Western Type diet (cat nr. 4021.06; Arie Blok Diervoeding, Woerden, the Netherlands), during one month to stimulate atherogenesis. On the last day of the experiment the radiolabeled MMP-2 antagonist was given by intravenous injection. Three hours after injection, the mice were harvested and the aortic sinus area was analysed overnight using a storage phosphor imaging technique for binding of the MMP2 antagonist.

[5] = tissue biodistribution after intravenous administration; type: in vivo, CL57/BL6 mice; conditions: i.v.
Experimental: Because the in vitro studies gave promising results, preliminary in vivo studies were performed using the CL57/BL6 mice (8 weeks old). The tissue distribution of [^123I]8 (which is representative for the radioisotopes with alternative halogens), after intravenous administration, was determined at three time points. […] This is regular pharmacokinetic behaviour of a radiotracer.
The extended biodistribution studies were performed using the CL57/BL6 mice (8 weeks old). Here the tissue distribution of [^123I]8, after intravenous administration was determined at 9 time points (up to 24 hours p.i.).

[6] = CL57/BL6 mice 8 weeks old, three time points, FIG. 1

SMILES	IC50 [1]	IC50 [2]	IC50 [3]	radioactivity in the aortic sinus [4]	liver uptake [5, 6]	route of excretion [5, 6]	thyroid uptake (de-iodination in vivo) [5, 6]	re-uptake in liver and kidney ([5]; CL57/BL6 mice, 9 time points up to 24 hours p.i., FIG. 2)
O=C(O)CN(CC(=O)NO)S(=O)(=O)c1ccc(Oc2ccc(F)cc2)cc1 [Compound 6b, {[4-(4-Fluoro-phenoxy)-benzenesulphonyl]-hydroxycarbamoylmethyl-amino}-acetic acid]	4690 ± 2220 nM	0.27 ± 0.15 nM	0.13 ± 0.03 nM	–	–	–	–	–
O=C(O)CN(CC(=O)NO)S(=O)(=O)c1ccc(Oc2ccc(I)cc2)cc1 [Compound 6e, {[4-(4-Iodo-phenoxy)-benzenesulphonyl]-hydroxycarbamoylmethyl-amino}-acetic acid]	1320 ± 790 nM	1.61 ± 1.41 nM	7.64 ± 1.43 nM	–	–	–	–	–
O=C(O)CN(CC(=O)NO)S(=O)(=O)c1ccc(Oc2ccc([123I])cc2)cc1 [[^123I]8, {[4-(4-[^123I]Iodophenoxy)-benzenesulphonyl]-hydroxycarbamoylmethyl-amino}-acetic acid]	–	–	–	Increased radioactivity was observed in the aortic sinus of the heart	taken up intensively into the liver	excreted mainly via the urinary tract	very low uptake in the thyroid	A little re-uptake was observed in the liver and kidney after 3 and 6 hours respectively
O=C(O)CN(CC(=O)NO)S(=O)(=O)c1ccc(Oc2ccc(Br)cc2)cc1 [Compound 6d, {[4-(4-Bromo-phenoxy)-benzenesulphonyl]-hydroxycarbamoylmethyl-amino}-acetic acid]	910 ± 560 nM	1.95 ± 1.1 nM	0.87 ± 0.4 nM	–	–	–	–	–
O=C(O)CN(CC(=O)NO)S(=O)(=O)c1ccc(Oc2ccccc2)cc1 [Compound 6a, {[4-Phenoxy-benzenesulphonyl]-hydroxycarbamoylmethyl-amino}-acetic acid]	1670 ± 980 nM	4.31 ± 2.06 nM	1.89 ± 1.11 nM	–	–	–	–	–
